In ChEMBL document CHEMBL1909536, “7-Oxopyrrolopyridine-derived DPP4 inhibitors-mitigation of CYP and hERG liabilities via introduction of polar functionalities in the active site” (Bioorg Med Chem Lett, 2011):
Values joined by “and” are separate entries in the source; they are usually repeats but may differ in a detail not shown here. Equal entries are not always repeated. Blank lines part the entries; values can stand above or below the compound they belong to.

Legend:
Cytochrome P450 3A4 [1] = biological target: T1, Cytochrome P450 3A4 (Homo sapiens, UniProt P08684); experiment: Inhibition of CYP3A4 in presence of the substrate 7-bezyloxy-4-trifluoromethyl coumarin; assay type: ADME
T1 sequence (P08684 whole entry): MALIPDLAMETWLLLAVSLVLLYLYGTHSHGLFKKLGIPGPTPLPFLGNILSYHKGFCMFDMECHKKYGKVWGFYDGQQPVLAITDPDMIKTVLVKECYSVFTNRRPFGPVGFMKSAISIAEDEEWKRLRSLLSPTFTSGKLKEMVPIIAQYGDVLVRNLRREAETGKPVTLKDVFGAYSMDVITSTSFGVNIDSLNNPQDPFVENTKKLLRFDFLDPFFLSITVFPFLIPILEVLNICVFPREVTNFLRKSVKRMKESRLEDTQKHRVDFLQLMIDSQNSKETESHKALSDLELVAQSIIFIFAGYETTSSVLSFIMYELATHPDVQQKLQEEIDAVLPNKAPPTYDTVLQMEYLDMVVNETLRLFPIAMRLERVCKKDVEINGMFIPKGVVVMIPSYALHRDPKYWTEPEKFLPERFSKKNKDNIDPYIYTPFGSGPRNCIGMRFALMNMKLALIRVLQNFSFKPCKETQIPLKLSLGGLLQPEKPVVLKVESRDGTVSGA

[2] = Half life in rat; assay type: ADME, organism-based; conditions: in vivo
hERG (KCNH2) = hERG (KCNH2) (Homo sapiens, UniProt Q12809); experiment: (§1) Inhibition of human ERG at 10 uM by patch clamp assay; conditions: INH
hERG (KCNH2), sequence (Q12809 whole entry): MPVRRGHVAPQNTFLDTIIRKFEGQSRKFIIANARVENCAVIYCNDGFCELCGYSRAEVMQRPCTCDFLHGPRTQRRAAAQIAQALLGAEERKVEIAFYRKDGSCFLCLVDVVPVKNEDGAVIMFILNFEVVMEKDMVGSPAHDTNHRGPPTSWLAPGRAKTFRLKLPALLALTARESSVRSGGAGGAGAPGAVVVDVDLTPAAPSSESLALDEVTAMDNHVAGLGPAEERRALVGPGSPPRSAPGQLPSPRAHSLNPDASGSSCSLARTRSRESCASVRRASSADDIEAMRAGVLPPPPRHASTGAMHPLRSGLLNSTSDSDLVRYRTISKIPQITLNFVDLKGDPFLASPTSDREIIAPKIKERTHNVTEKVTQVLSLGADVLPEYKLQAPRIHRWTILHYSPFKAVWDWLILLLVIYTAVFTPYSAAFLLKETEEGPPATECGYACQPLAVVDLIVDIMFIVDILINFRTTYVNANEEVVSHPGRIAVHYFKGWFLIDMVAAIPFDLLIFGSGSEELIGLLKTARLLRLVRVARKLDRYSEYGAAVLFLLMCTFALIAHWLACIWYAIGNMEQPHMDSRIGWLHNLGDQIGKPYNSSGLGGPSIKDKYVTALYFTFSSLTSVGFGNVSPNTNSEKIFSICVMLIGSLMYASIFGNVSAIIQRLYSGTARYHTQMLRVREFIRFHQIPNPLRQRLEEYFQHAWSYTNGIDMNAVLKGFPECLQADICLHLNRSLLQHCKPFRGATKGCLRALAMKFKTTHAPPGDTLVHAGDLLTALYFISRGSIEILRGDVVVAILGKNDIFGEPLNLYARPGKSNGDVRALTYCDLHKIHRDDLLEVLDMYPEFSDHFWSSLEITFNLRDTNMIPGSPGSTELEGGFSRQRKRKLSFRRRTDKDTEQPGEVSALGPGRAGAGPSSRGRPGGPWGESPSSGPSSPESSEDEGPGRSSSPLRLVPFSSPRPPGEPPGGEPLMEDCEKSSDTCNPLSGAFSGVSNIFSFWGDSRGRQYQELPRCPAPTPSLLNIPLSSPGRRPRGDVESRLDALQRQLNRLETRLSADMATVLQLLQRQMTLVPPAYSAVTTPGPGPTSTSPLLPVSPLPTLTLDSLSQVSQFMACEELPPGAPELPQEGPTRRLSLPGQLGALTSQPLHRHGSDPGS

[3] = Oral availability in rat; assay type: ADME, organism-based; conditions: in vivo
Cytochrome P450 3A4 [4] = biological target: T1, Cytochrome P450 3A4; experiment: Inhibition of CYP3A4 up to 40 uM; assay type: ADME
Dipeptidyl peptidase 9 = Dipeptidyl peptidase 9 (Homo sapiens, UniProt Q86TI2); experiment: Inhibition of DPP9
Dipeptidyl peptidase 9, sequence (Q86TI2 whole entry): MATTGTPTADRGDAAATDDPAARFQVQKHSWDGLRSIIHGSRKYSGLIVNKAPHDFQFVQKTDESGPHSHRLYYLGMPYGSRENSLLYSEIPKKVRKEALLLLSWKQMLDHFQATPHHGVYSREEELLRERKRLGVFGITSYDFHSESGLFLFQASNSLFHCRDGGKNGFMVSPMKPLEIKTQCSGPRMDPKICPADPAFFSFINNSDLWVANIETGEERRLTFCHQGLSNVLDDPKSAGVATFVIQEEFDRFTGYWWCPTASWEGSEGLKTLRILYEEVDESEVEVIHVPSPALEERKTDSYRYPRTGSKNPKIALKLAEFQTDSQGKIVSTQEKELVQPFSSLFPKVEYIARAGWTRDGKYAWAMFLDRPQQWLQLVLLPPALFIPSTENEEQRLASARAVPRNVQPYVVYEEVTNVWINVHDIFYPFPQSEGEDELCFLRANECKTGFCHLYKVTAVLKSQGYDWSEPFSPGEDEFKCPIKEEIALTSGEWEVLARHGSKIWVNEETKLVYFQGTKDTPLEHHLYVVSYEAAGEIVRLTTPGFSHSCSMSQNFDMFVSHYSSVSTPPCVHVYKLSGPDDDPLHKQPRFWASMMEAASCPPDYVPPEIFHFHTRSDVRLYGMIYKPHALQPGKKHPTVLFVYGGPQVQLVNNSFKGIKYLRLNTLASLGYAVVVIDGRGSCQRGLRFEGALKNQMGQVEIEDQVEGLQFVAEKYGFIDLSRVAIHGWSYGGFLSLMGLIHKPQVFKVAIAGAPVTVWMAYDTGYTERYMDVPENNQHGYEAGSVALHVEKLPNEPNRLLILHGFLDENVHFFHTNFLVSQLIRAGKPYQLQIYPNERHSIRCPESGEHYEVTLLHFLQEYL

Dipeptidyl peptidase 4 = Dipeptidyl peptidase 4 (Homo sapiens, UniProt P27487); experiment: Inhibition of DPP4
Dipeptidyl peptidase 4, sequence (P27487 whole entry): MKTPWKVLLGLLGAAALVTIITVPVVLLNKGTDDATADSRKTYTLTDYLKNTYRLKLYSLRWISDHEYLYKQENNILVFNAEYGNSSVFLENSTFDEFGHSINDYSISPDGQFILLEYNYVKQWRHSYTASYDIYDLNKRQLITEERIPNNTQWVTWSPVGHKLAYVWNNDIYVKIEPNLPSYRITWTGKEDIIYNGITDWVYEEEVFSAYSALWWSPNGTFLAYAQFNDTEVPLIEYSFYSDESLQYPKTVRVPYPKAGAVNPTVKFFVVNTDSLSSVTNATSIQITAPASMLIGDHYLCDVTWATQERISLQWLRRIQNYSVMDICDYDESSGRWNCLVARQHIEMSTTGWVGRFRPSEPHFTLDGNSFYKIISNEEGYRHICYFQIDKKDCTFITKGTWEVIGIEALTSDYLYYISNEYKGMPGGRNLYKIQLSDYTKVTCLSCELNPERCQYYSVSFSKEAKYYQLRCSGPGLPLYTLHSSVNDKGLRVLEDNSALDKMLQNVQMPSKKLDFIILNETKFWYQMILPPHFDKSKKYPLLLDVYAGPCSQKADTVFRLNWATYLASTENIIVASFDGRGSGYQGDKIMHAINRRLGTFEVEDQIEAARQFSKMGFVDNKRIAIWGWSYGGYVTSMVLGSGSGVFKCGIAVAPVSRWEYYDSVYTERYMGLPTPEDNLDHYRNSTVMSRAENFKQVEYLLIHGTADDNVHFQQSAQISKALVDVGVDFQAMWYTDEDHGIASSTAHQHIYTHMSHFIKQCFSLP

Dipeptidyl peptidase 8 = Dipeptidyl peptidase 8 (Homo sapiens, UniProt Q6V1X1); experiment: Inhibition of DPP8
Cytochrome P450 3A4 [5] = biological target: T1, Cytochrome P450 3A4; experiment: Inhibition of CYP3A4; assay type: ADME
[6] = biological target: T2, Voltage-gated inwardly rectifying potassium channel KCNH2 (Homo sapiens, UniProt Q12809); experiment: as §1; conditions: 10 µM
T2 sequence (Q12809 whole entry): as the sequence (Q12809 whole entry) above

[7] = biological target: T3, Nuclear receptor subfamily 1 group I member 2 (Homo sapiens, UniProt O75469); experiment: Inhibition of PXR
T3 sequence (O75469 whole entry): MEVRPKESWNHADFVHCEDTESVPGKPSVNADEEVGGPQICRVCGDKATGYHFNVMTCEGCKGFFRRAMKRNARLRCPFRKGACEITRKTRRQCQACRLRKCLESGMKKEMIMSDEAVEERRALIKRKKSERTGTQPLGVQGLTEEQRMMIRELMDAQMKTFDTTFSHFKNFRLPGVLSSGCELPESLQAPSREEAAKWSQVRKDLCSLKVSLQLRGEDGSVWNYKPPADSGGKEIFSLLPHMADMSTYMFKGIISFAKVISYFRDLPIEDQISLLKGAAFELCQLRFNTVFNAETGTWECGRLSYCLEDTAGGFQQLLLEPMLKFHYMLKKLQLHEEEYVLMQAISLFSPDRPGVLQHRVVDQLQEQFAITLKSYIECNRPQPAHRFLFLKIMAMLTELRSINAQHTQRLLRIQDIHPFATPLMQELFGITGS

Cytochrome P450 3A4 [8] = biological target: T1, Cytochrome P450 3A4; experiment: Inhibition of CYP3A4 in presence of the substrate 7-bezyloxy resorufin; assay type: ADME
[9] = Cmax in rat at 10 umol/kg; assay type: ADME, organism-based; parameters: dose 10 umol/kg; conditions: in vivo
Cytochrome P450 2C19 = Cytochrome P450 2C19 (Homo sapiens, UniProt P33261); experiment: Inhibition of CYP2C19; assay type: ADME
Cytochrome P450 2C19, sequence (P33261 whole entry): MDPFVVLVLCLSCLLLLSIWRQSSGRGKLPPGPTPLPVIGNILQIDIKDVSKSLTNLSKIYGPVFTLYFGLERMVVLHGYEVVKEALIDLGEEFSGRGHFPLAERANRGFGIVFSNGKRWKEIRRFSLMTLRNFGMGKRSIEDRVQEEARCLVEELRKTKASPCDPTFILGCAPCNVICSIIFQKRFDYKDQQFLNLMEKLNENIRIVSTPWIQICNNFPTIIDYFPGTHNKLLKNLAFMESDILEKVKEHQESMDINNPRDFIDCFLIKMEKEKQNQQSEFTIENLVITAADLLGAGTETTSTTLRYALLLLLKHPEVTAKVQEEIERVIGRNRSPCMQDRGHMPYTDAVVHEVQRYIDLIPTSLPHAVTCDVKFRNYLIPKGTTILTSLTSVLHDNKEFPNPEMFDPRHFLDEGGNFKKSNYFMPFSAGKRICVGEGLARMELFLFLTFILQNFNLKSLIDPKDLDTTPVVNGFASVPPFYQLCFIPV

[10] = Tmax in rat at 10 umol/kg; assay type: ADME, organism-based; conditions: in vivo
[11] = biological target: T2, Voltage-gated inwardly rectifying potassium channel KCNH2; experiment: Inhibition of human ERG by flux assay
[12] = biological target: T2, Voltage-gated inwardly rectifying potassium channel KCNH2

IC50 (Cytochrome P450 3A4 [1]): 1200 nM
half-life [2]: 4.4 h
bioavailability [3]: 78%
SMILES: Cc1nc2c(c(-c3ccc(Cl)cc3Cl)c1CN)CN(c1ccccc1)C2=O (single isomer, unassigned; atropisomer)
inhibition at 10 µM (hERG (KCNH2)): 69%

IC50 (Cytochrome P450 3A4 [1]): 2500 nM
SMILES: COc1ccc(N2Cc3c(nc(C)c(CN)c3-c3ccc(Cl)cc3Cl)C2=O)cc1 (single isomer, unassigned; atropisomer)
inhibition at 10 µM (hERG (KCNH2)): 67%

IC50 (Cytochrome P450 3A4 [4]): > 17000 nM
SMILES: Cc1nc2c(c(-c3ccc(Cl)cc3Cl)c1CN)CN(CC(=O)N(C)C)C2=O (single isomer, unassigned; atropisomer)

IC50 (Cytochrome P450 3A4 [1]): 1400 nM
SMILES: Cc1nc2c(c(-c3ccc(Cl)cc3Cl)c1CN)CN(c1ccc(F)cc1)C2=O (single isomer, unassigned; atropisomer)
inhibition at 10 µM (hERG (KCNH2)): 92%

IC50 (Cytochrome P450 3A4 [1]): 22000 nM
Ki (Dipeptidyl peptidase 9): > 30000 nM
SMILES: COCCN1Cc2c(nc(C)c(CN)c2-c2ccc(Cl)cc2Cl)C1=O (single isomer, unassigned; atropisomer)

IC50 (Cytochrome P450 3A4 [4]): > 17000 nM
SMILES: Cc1nc2c(c(-c3ccc(Cl)cc3Cl)c1CN)CN(CC(=O)N1CCCC1)C2=O (single isomer, unassigned; atropisomer)

IC50 (Cytochrome P450 3A4 [4]): > 17000 nM
Ki (Dipeptidyl peptidase 9): > 10000 nM
Ki (Dipeptidyl peptidase 4): 0.67 nM
SMILES: Cc1nc2c(c(-c3ccc(Cl)cc3Cl)c1CN)CN(CC(=O)N1CCN(C)CC1)C2=O (atropisomer, axis not shown)

IC50 (Cytochrome P450 3A4 [1]): 670 nM
SMILES: Cc1nc2c(c(-c3ccc(Cl)cc3Cl)c1CN)CN(c1ccc(C#N)cc1)C2=O (single isomer, unassigned; atropisomer)
inhibition at 10 µM (hERG (KCNH2)): 97%

IC50 (Cytochrome P450 3A4 [1]): > 40000 nM
Ki (Dipeptidyl peptidase 9): > 30000 nM
Ki (Dipeptidyl peptidase 8): > 30000 nM
inhibition (INH) (Cytochrome P450 3A4 [5]): Not Active
SMILES: Cc1nc2c(c(-c3ccc(Cl)cc3Cl)c1CN)CNC2=O (single isomer, unassigned; atropisomer)
inhibition at 10 µM (hERG (KCNH2)): 68%

IC50 (Cytochrome P450 3A4 [1]): 17000 nM
SMILES: COC(=O)CN1Cc2c(nc(C)c(CN)c2-c2ccc(Cl)cc2Cl)C1=O (single isomer, unassigned; atropisomer)

IC50 (Cytochrome P450 3A4 [1]): 270 nM
SMILES: Cc1ccc(N2Cc3c(nc(C)c(CN)c3-c3ccc(Cl)cc3Cl)C2=O)cc1 (single isomer, unassigned; atropisomer)
inhibition at 10 µM (hERG (KCNH2)): 84%

IC50 (Cytochrome P450 3A4 [1]): > 40000 nM
Ki (Dipeptidyl peptidase 8): > 30000 nM
Ki (Dipeptidyl peptidase 4): 29 nM
SMILES: Cc1nc2c(c(-c3ccc(Cl)cc3Cl)c1CN)CN(C)C2=O (single isomer, unassigned; atropisomer)

IC50 (Cytochrome P450 3A4 [4]): > 17000 nM
SMILES: Cc1nc2c(c(-c3ccc(Cl)cc3Cl)c1CN)CN(CC(=O)N1CCC(C(N)=O)CC1)C2=O (single isomer, unassigned; atropisomer)

IC50 (Cytochrome P450 3A4 [1]): 1500 nM and 1300 nM and 2200 nM
SMILES: COc1ccccc1N1Cc2c(nc(C)c(CN)c2-c2ccc(Cl)cc2Cl)C1=O (atropisomer R)
inhibition at 10 µM (hERG (KCNH2)): 63%
INH [6]: 67% and 68%

IC50 (Cytochrome P450 3A4 [1]): 390 nM
SMILES: Cc1nc2c(c(-c3ccc(Cl)cc3Cl)c1CN)CN(c1ccc(Cl)cc1)C2=O (single isomer, unassigned; atropisomer)
inhibition at 10 µM (hERG (KCNH2)): 82%

IC50 (Dipeptidyl peptidase 4): 7 nM
SMILES: COc1cc2c(cc1OC)-c1nc(N)c(CN)c(-c3ccc(Cl)cc3Cl)c1C2

IC50 (Cytochrome P450 3A4 [1]): > 40000 nM
SMILES: Cc1nc2c(c(-c3ccc(Cl)cc3Cl)c1CN)CN(CC(=O)O)C2=O (single isomer, unassigned; atropisomer)

IC50 (Cytochrome P450 3A4 [4]): > 17000 nM
SMILES: Cc1nc2c(c(-c3ccc(Cl)cc3Cl)c1CN)CN(CC(N)=O)C2=O (single isomer, unassigned; atropisomer)

IC50 (Cytochrome P450 3A4 [1]): 770 nM
Ki (Dipeptidyl peptidase 9): > 30000 nM
Ki (Dipeptidyl peptidase 8): > 30000 nM
EC20 [7]: 1100 nM
EC60 [7]: 3300 nM
IC50 (Cytochrome P450 3A4 [8]): 340 nM
Cmax [9]: 76 nM
IC50 (Cytochrome P450 2C19): 340 nM
SMILES: Cc1nc2c(c(-c3ccc(Cl)cc3Cl)c1CN)CN(Cc1ccccc1)C2
inhibition at 10 µM (hERG (KCNH2)): 67%

IC50 (Cytochrome P450 3A4 [4]): > 17000 nM
EC20 [7]: > 50000 nM
EC60 [7]: > 50000 nM
Tmax [10]: 0.417 h
Cmax [9]: 32 nM
SMILES: CNC(=O)CN1Cc2c(nc(C)c(CN)c2-c2ccc(Cl)cc2Cl)C1=O (single isomer, unassigned; atropisomer)

IC50 (Cytochrome P450 3A4 [1]): 1100 nM
EC20 [7]: 1900 nM
EC60 [7]: > 5600 nM
IC50 (Cytochrome P450 3A4 [8]): 730 nM
IC50 (Cytochrome P450 2C19): 950 nM
SMILES: Cc1nc2cn(Cc3ccccc3)cc2c(-c2ccc(Cl)cc2Cl)c1CN
IC50 [11]: 14000 nM

IC50 (Cytochrome P450 3A4 [1]): 2800 nM
EC20 [7]: 470 nM
EC60 [7]: 1400 nM
IC50 (Cytochrome P450 3A4 [8]): 1400 nM
Cmax [9]: 500 nM
IC50 (Cytochrome P450 2C19): 15000 nM
SMILES: Cc1nc2c(c(-c3ccc(Cl)cc3Cl)c1CN)CN(Cc1ccccc1)C2=O (single isomer, unassigned; atropisomer)

IC50 (Cytochrome P450 3A4 [4]): > 17000 nM
SMILES: CCN(CC)C(=O)CN1Cc2c(nc(C)c(CN)c2-c2ccc(Cl)cc2Cl)C1=O

IC50 (Cytochrome P450 3A4 [4]): > 17000 nM
SMILES: Cc1nc2c(c(-c3ccc(Cl)cc3Cl)c1CN)CN(CC(=O)N1CCN(S(C)(=O)=O)CC1)C2=O (single isomer, unassigned; atropisomer)

IC50 (Cytochrome P450 3A4 [1]): > 40000 nM
Ki (Dipeptidyl peptidase 9): > 30000 nM
Ki (Dipeptidyl peptidase 8): > 30000 nM
Ki (Dipeptidyl peptidase 4): 9 nM
SMILES: Cc1nc2c(c(-c3ccc(Cl)cc3Cl)c1CN)CN(CCO)C2=O (single isomer, unassigned; atropisomer)

IC50 (Cytochrome P450 3A4 [4]): > 17000 nM
SMILES: Cc1nc2c(c(-c3ccc(Cl)cc3Cl)c1CN)CN(CC(=O)N1CCOCC1)C2=O (single isomer, unassigned; atropisomer)

IC50 (Cytochrome P450 3A4 [4]): > 17000 nM
SMILES: CC(=O)N1CCN(C(=O)CN2Cc3c(nc(C)c(CN)c3-c3ccc(Cl)cc3Cl)C2=O)CC1

IC50 (Cytochrome P450 3A4 [4]): 7000 nM
SMILES: Cc1nc2c(c(-c3ccc(Cl)cc3Cl)c1CN)CN(CC(=O)NCc1cccnc1)C2=O
IC50 [12]: 80000 nM

IC50 (Dipeptidyl peptidase 4): 920 nM
SMILES: NCc1c(-c2ccc(Cl)cc2Cl)cc(-c2ccccc2)nc1N

IC50 (Cytochrome P450 3A4 [4]): > 17000 nM
SMILES: Cc1nc2c(c(-c3ccc(Cl)cc3Cl)c1CN)CN(CC(=O)Nc1ccnn1C)C2=O
